Data from US20220039384A1, “SELECTIVE WEED CONTROL WITH HALAUXIFEN OR 4-AMINO-3-CHLORO-5-FLUORO-6-(4-CHLORO-2-FLUORO-3-METHOXYPHENYL) PYRIDINE-2-CARBOXYLIC ACID OR DERIVATIVES THEREOF IN VINEYARDS OR PERENNIAL CROPS” (Corteva Agriscience LLC, priority 2013, published 2022).

Columns and labels:
Type in all cases: in vivo
[1] = tested on: EROCI (Erodium cicutarium, redstem filaree); test: Field trial, pre-emergence dormant application (December), California vineyards: visual weed control; details: applied prior to weed emergence
Excerpt: (§1) As used herein, selective pre- and post-emergence control of undesirable vegetation means preventing, reducing, killing, or otherwise adversely modifying the development of the undesirable vegetation in the presence of crop plants with limited adverse effect on the crop plants. For example, a broadleaf weed control of 80% (rated visually) with crop injury of less than or equal to 20% (rated visually) would constitute selective control. In some embodiments the adverse effect on crop plants is limited to less than 10% visually rated crop injury. Visual crop injury is a composite rating accounting for all phytotoxic effects including chlorosis, necrosis, growth inhibition, epinasty, delays in maturity and seed or fruit deformity. Visual weed control is a composite rating accounting for reductions in pest plant biomass and/or stand reduction.
(§2) Small plot research experiments were conducted in Fresno, Calif., USA to evaluate the pre-emergence and post-emergence herbicidal weed control activity and the vines crop tolerance to pre-emergence and post-emergence application of Compound I and Compound II to the weeds. Application water volume of 100 to 187 liters per hectare (L/ha) was used for all experiments. All treatments were applied with a standard small plot carbon dioxide (CO2) backpack sprayer. All treatments were tank-mixed with Crop Oil Concentrate (COC), a well known adjuvant, at 2.34 L/ha. Experimental emulsifiable concentrate (EC) formulations were used for Compounds I and II. The dimethylammonium (DMA) salt of glyphosate was used in all trials. Pindar® GT is a commercial formulation containing a pre-mix of penoxsulam+oxyfluorfen (10+476 grams of active ingredient per liter (g ai/L), respectively). Vine crop stage was dormant (no leaves on the vines during the winter) or early spring growth at the time of Compound I or Compound II application. Generally, weeds were not emerged for the pre-emergence treatments or were at the two to six-leaf stage at the time of the post-emergence herbicide application.
(§3) Tables 1, 2 and 6 provide weed control results from pre-emergence applications of Compounds I and/or II prior to weed emergence; Tables 4, 7 and 8 provide weed control results from post-emergence applications of Compounds I and/or II applied to actively growing weeds; Tables 3 and 5 provide vine response data from pre-emergence and post-emergence applications of Compound I respectively.

[2] = tested on: MALPA (Malva parviflora, smallflower malva); test: as above; details: applied prior to weed emergence
Excerpt: as §1, §2, §3

[3] = tested on: PANCA (Panicum capillare, witchgrass); test: as above; details: applied prior to weed emergence
Excerpt: as §1, §2, §3

[4] = tested on: AGRRE (Agropyron repens, quackgrass); test: Field trial, post-emergence directed spring application (April), California vineyards: visual weed control
Excerpt: as §1, §2, §3

[5] = tested on: ERIBO (Conyza bonariensis, hairy fleabane); test: as above
Excerpt: as §1, §2, §3

[6] = tested on: EROCI (Erodium cicutarium, redstem filaree); test: as above
Excerpt: as §1, §2, §3

[7] = tested on: MALPA (Malva parviflora, smallflower malva); test: as above
Excerpt: as §1, §2, §3

[8] = tested on: PANCA (Panicum capillare, witchgrass); test: as above
Excerpt: as §1, §2, §3

[9] = tested on: SETFA (Setaria faberi, giant foxtail); test: as above
Excerpt: as §1, §2, §3

`COC(=O)c1nc(-c2ccc(Cl)c(OC)c2F)cc(N)c1Cl` [I—Me, methyl 4-amino-3-chloro-6-(4-chloro-2-fluoro-3-methoxyphenyl)pyridine-2-carboxylate] was tested, and the “% Visual Control 90 DAA EROCI” value ([1]; 10 g ae/ha) was 58%, the “% Visual Control 184 DAA EROCI” value ([1]; 10 g ae/ha) was 47% and the “% Visual Control 90 DAA EROCI” value ([1]; 20 g ae/ha) was 72%. For the same compound, the “% Visual Control 184 DAA EROCI” value ([1]; 20 g ae/ha) was 52%, the “% Visual Control 90 DAA EROCI” value ([1]; 40 g ae/ha) was 82% and the “% Visual Control 184 DAA EROCI” value ([1]; 40 g ae/ha) was 55%. For the same compound, the “% Visual Control 90 DAA MALPA” value ([2]; 10 g ae/ha) was 85%, the “% Visual Control 184 DAA MALPA” value ([2]; 10 g ae/ha) was 45% and the “% Visual Control 90 DAA MALPA” value ([2]; 20 g ae/ha) was 88%. The “% Visual Control 184 DAA MALPA” value ([2]; 20 g ae/ha) was 60%, the “% Visual Control 90 DAA MALPA” value ([2]; 40 g ae/ha) was 89% and the “% Visual Control 184 DAA MALPA” value ([2]; 40 g ae/ha) was 47%. The “% Visual Control 184 DAA PANCA” value ([3]; 10 g ae/ha) was 60%, the “% Visual Control 184 DAA PANCA” value ([3]; 20 g ae/ha) was 33.3% and the “% Visual Control 184 DAA PANCA” value ([3]; 40 g ae/ha) was 63.3%. For the same compound, the “% Visual Control 60 DAA AGRRE” value ([4]; 5 g ae/ha) was 87%, the “% Visual Control 60 DAA AGRRE” value ([4]; 10 g ae/ha) was 80% and the “% Visual Control 60 DAA AGRRE” value ([4]; 20 g ae/ha) was 83%. The “% Visual Control 60 DAA ERIBO” value ([5]; 5 g ae/ha) was 97%, the “% Visual Control 60 DAA ERIBO” value ([5]; 10 g ae/ha) was 95% and the “% Visual Control 60 DAA ERIBO” value ([5]; 20 g ae/ha) was 93%. For the same compound, the “% Visual Control 60 DAA EROCI” value ([6]; 5 g ae/ha) was 62%, the “% Visual Control 60 DAA EROCI” value ([6]; 10 g ae/ha) was 70% and the “% Visual Control 60 DAA EROCI” value ([6]; 20 g ae/ha) was 86%. For the same compound, the “% Visual Control 60 DAA MALPA” value ([7]; 5 g ae/ha) was 75%, the “% Visual Control 60 DAA MALPA” value ([7]; 10 g ae/ha) was 72% and the “% Visual Control 60 DAA MALPA” value ([7]; 20 g ae/ha) was 73%. For the same compound, the “% Visual Control 60 DAA PANCA” value ([8]; 5 g ae/ha) was 82%, the “% Visual Control 60 DAA PANCA” value ([8]; 10 g ae/ha) was 88% and the “% Visual Control 60 DAA PANCA” value ([8]; 20 g ae/ha) was 86%. For the same compound, the “% Visual Control 60 DAA SETFA” value ([9]; 5 g ae/ha) was 98%, the “% Visual Control 60 DAA SETFA” value ([9]; 10 g ae/ha) was 80% and the “% Visual Control 60 DAA SETFA” value ([9]; 20 g ae/ha) was 97%.
